Measured values: ChEMBL document CHEMBL1151136, “Searching for Bioactive Compounds: Various Strategies” (J Nat Prod, 1990)
Converted amounts (≈) assume the structure as drawn.

How the values were obtained:
[1] = Cytotoxicity against ovarian cancer cells; format: functional; details: Cancer cell lines; read-out: ID50 (the source's name)
[2] = system: Staphylococcus aureus; assay: Antimicrobial activity against Staphylococcus aureus; format: functional
[3] = system: Bacillus subtilis; assay: Antimicrobial activity against Bacillus subtilis; format: functional
[4] = system: Penicillium citrinum; assay: Antimicrobial activity against Penicillium citrinum; format: functional
[5] = Cytotoxicity against CHL cells; format: cell-based, Cricetulus griseus; details: chinese hamster, read-out: LD50 (the source's name)

Row | SMILES | MIC [2] [µg/mL] | MIC [3] [µg/mL] | other results
1 | C=C/C(C)=C/C[C@]1(C)[C@H]2C[C@@H](O)C=C3[C@H](OC(C)=O)O[C@@H](OC(C)=O)[C@@]32[C@H](OC(=O)/C=C/c2ccccc2)C[C@@H]1C | – | – | IC50 [1]: 35 µg/mL (≈ 62 µM)
2 | C=C(CC(=O)O)C(=O)C[C@@]1(C)[C@H](C)CC[C@@]2(C)C(C)=CCC[C@H]12 | 20 (≈ 62.8 µM) | 25 (≈ 78.5 µM) | –
3 | CN[C@@H]1[C@H](O[C@H]2[C@H](O[C@H]3[C@H](O)[C@@H](O)[C@H](N=C(N)N)[C@@H](O)[C@@H]3N=C(N)N)O[C@@H](C)[C@]2(O)C=O)O[C@@H](CO)[C@H](O)[C@H]1O.CN[C@@H]1[C@H](O[C@H]2[C@H](O[C@H]3[C@H](O)[C@@H](O)[C@H](N=C(N)N)[C@@H](O)[C@@H]3N=C(N)N)O[C@@H](C)[C@]2(O)C=O)O[C@@H](CO)[C@H](O)[C@H]1O.O=S(=O)(O)O.O=S(=O)(O)O.O=S(=O)(O)O [STREPTOMYCIN SULFATE] | 6.3 | 12.5 | –
4 | CC(=O)O[C@@H]1[C@H](OC(C)=O)[C@@H](Oc2c(-c3ccc(O)cc3)oc3cc(O)cc(O)c3c2=O)O[C@H](C)[C@H]1OC(=O)/C=C/c1ccc(O)cc1 | – | – | MIC [4]: < 30 µg/mL
5 | C=C/C(C)=C/C[C@@]1(C)[C@@H](C)[C@H](OC(=O)CCCCCCCCC)[C@@H](OC(C)=O)[C@]23C(=C[C@H](O)C[C@@]21C)[C@@H](OC(C)=O)O[C@@H]3OC(C)=O | – | – | CC50 [5]: 770 nM
